US5776718A, “Reversible protease inhibitors” (Arris Pharmaceutical Corporation, priority 1996, dated 1998)
Where two headings read alike, the source gives them in different places.

Assays:
cruzain = cruzain (Trypanosoma cruzi, UniProt P25779); test: Inhibition of cruzain (conditions as for cathepsin L); format: biochemical, T. cruzi
Method: (§1) Conditions for cathepsin L: 50 mM acetate, pH 5.5, 2.5 mM EDTA, 2.5 mM DTT. substrate: [Z-Phe-Arg-AMC]=5 mM (Km=2 mM). The assay at 25^0 was started by the addition of cat L (final concentration approx 1 nM) and the increase in fluorescence at 450 nm with excitation at 380 nm was followed over 2 min. The depression in the rate of substrate hydrolysis following addition of varying concentrations of inhibitors was noted. The assay was linear throughout the range observed. Duplicate runs were measured.
Conditions for cruzain were the same as for cathepsin L with the exception that the Km for the substrate was 1 mM.
(§2) The respective Ki values were estimated by using the Dixon plot as described by Irwin Segel in Enzyme Kinetics: Behavior and analysis of rapid equilibrium and steady-state enzyme systems, 1975, Wiley-lnterscience Publication, John Wiley & Sons, New York.

cathepsin L = cathepsin L (Homo sapiens, UniProt P07711); test: Inhibition of cathepsin L, fluorogenic substrate Z-Phe-Arg-AMC; format: biochemical
Method: as §1, §2

cathepsin B = cathepsin B (Homo sapiens, UniProt P07858); test: Inhibition of cathepsin B, fluorogenic substrate Z-Arg-Arg-AMC; format: biochemical
Method: as §1, with “The” for “Conditions for cathepsin L: 50 mM acetate, pH 5.5, 2.5 mM EDTA, 2.5 mM DTT. substrate: [Z-Phe-Arg-AMC]=5 mM (Km=2 mM). The”, “250” for “25^0”, “B” for “L”, “10” for “1”
as §2

cathepsin S = cathepsin S (Homo sapiens, UniProt P25774); test: Inhibition of cathepsin S, fluorogenic substrate Z-Val-Val-Arg-AMC; format: biochemical; settings: 50 mM phosphate, pH 6.5, 2.5 mM EDTA, 2.5 mM DTT; Dixon plot
Method: as §1, with “The” for “Conditions for cathepsin L: 50 mM acetate, pH 5.5, 2.5 mM EDTA, 2.5 mM DTT. substrate: [Z-Phe-Arg-AMC]=5 mM (Km=2 mM). The”, “250” for “25^0”, “S” for “L”, “[…])” for “1 nM)”
as §2

[1] = 50 mM acetate, pH 5.5, 2.5 mM EDTA, 2.5 mM DTT, Km 1 mM, Dixon plot, read-out: cruzain (Ki μM)
[2] = 50 mM acetate, pH 5.5, 2.5 mM EDTA, 2.5 mM DTT, Dixon plot, read-out: cathepsin L (Ki μM)
[3] = 50 mM phosphate, pH 6.0, 2.5 mM EDTA, 2.5 mM DTT, Dixon plot, read-out: cathepsin B (Ki μM)

cathepsin S, sequence (P25774 115-331, species assumed): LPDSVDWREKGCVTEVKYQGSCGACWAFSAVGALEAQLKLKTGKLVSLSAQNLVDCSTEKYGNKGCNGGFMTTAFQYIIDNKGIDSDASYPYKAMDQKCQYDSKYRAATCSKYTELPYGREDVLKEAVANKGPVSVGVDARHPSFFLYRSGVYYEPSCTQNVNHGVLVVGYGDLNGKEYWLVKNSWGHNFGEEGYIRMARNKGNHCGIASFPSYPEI
cruzain, sequence (P25779 123-467): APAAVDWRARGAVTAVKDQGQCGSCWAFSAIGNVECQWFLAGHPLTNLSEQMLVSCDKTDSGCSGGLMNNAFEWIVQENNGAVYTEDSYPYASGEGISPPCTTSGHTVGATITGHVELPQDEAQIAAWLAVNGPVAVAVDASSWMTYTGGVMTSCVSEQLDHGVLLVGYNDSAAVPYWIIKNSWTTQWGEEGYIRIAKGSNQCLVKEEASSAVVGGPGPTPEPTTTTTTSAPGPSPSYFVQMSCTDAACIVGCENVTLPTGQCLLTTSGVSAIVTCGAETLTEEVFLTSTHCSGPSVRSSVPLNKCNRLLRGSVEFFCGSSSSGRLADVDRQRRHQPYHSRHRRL
cathepsin L, sequence (P07711 114-333, species assumed): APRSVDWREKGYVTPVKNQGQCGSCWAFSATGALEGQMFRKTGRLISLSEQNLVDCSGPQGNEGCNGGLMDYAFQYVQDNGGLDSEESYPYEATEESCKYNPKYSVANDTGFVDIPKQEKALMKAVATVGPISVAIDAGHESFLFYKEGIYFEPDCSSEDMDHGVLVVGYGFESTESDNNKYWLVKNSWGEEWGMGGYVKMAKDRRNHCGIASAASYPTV

Row | Structure (SMILES) | Ki (cruzain; [1]) [µM] | Ki (cathepsin L; [2]) [µM] | Ki (cathepsin B; [3]) [µM] | Ki (cruzain) [µM] | Ki (cathepsin L) [µM] | Ki (cathepsin B) [µM] | Ki (cathepsin S) [µM]
1 | CCOC(=O)CC[C@H](CCc1ccccc1)NC(=O)[C@H](Cc1ccccc1)NC(=O)N1CCOCC1 [Mu--Phe--HphγCO2 Et, ethyl 4S-[N-(4-morpholinylcarbonyl)-L-phenylalanylamino]-6-phenylhexanoate] | 0.91 | 0.48 | 1.6 | – | – | – | –
2 | O=C(N[C@@H](CCc1ccccc1)CCS(=O)(=O)c1ccc2ccccc2c1)[C@H](Cc1ccc2ccccc2c1)NC(=O)N1CCOCC1 [Mu--Np2-HphγSO2 Np, N^2-(4-morpholinylcarbonyl)-N^1 -{3-phenyl-1S-[2-(2-naphthylsulfonyl)ethyl]propyl}-β-(2-naphthyl)-L-alaninamide] | 0.1 | 0.26 | 20 | – | – | – | –
3 | O=C(O)CCC(=O)N[C@@H](Cc1ccc2ccccc2c1)C(=O)N[C@@H](CCc1ccccc1)CCS(=O)(=O)c1ccc2ccccc2c1 [Suc--Np2--HphγSO2 2Np] | 0.23 | 0.11 | > 1000 | – | – | – | –
4 | O=C(O)CCC(=O)N[C@@H](Cc1ccccc1)C(=O)N[C@@H](CCc1ccccc1)CCS(=O)(=O)c1ccccc1 [Suc--Phe--HphγSO2 Ph, 3-{2-phenyl-1S-[3-phenyl-1S-(2-phenylsulfonylethyl)propylcarbamoyl]ethylcarbamoyl}propionic acid] | 1.5 | 1 | > 1000 | – | – | – | –
5 | O=C(N[C@@H](CCc1ccccc1)CCS(=O)(=O)CCc1ccccc1)[C@H](Cc1ccccc1)NC(=O)N1CCOCC1 [Mu--Phe--HphγSO2 EtPh, N^2-(4-morpholinylcarbonyl)-N^1 -{3-phenyl-1S-[2-(2-phenylethylsulfonyl)ethyl]propyl}-L-phenylalaninamide] | 5.9 | 0.17 | – | – | – | – | –
6 | O=C(CCNC(=O)OCc1ccccc1)N[C@@H](Cc1ccccc1)C(=O)N[C@@H](CCc1ccccc1)CCS(=O)(=O)c1ccccc1 [Z--β-Ala--Phe--HphγSO2 Ph, M-(N-benzyloxycarbonyl-β-alanyl)-N^1-[3-phenyl-1S-(2-phenylsulfonylethyl)propyl]-L-phenylalaninamide] | 0.54 | 0.79 | 52 | – | – | – | –
7 | O=C(O)CCC(=O)N[C@@H](Cc1ccc2ccccc2c1)C(=O)N[C@@H](CCc1ccccc1)CCS(=O)(=O)c1ccccc1 [Suc--Np2--HphγSO2 Ph, 3-{2-naphthyl-1S-[3-phenyl-1S-(2-phenylsulfonylethyl)propylcarbamoyl]ethylcarbamoyl}propionic acid] | 0.78 | 2.3 | > 1000 | – | – | – | –
8 | CCOP(=O)(CC[C@H](CCc1ccccc1)NC(=O)[C@H](Cc1ccccc1)NC(=O)N1CCOCC1)OCC [Mu--Phe--HphγPO(O2 Et)2] | – | – | – | 15 | 3 | 17 | –
9 | NCCC(=O)N[C@@H](Cc1ccccc1)C(=O)N[C@@H](CCc1ccccc1)CCS(=O)(=O)c1ccccc1 [β-Ala--Phe--HphγSO2 Ph, N^2-(β-alanyl)-N^1-[3-phenyl-1S-(2-phenylsulfonylethyl)propyl]-L-phenylalaninamide] | 14 | 14 | – | – | – | – | –
10 | O=C(N[C@@H](CCc1ccccc1)CCS(=O)(=O)c1ccccc1)[C@H](Cc1ccc(O)cc1)NC(=O)N1CCOCC1 [Mu--Tyr--HphγSO2 Ph, (S)-3-(4-morpholinecarbonyltyrosyl)-amino-5-phenyl-1-phenylsulfonylpentane] | – | 2.3 | – | 20 | – | – | –
11 | CC(C)C[C@H](NC(=O)N1CCOCC1)C(=O)NC(CCc1ccccc1)S(=O)(=O)Cc1ccccc1 (stereo partly drawn) [Mu--Leu--HphαSO2 Bzl, N^2-(4-morpholinylcarbonyl)-N^1-(3-phenyl-1-benzylsulfonylpropyl)-L-leucinamide] | 0.76 | 0.6 | 54 | – | – | – | 4.2
12 | O=C(NC(CCc1ccccc1)S(=O)(=O)Cc1ccccc1)[C@H](Cc1ccccc1)NC(=O)N1CCOCC1 (stereo partly drawn) [Mu--Phe--HphαSO2 Bzl, N^2-(4-morpholinylcarbonyl)-N^1-(3-phenyl-1-benzylsulfonylpropyl)-L-phenylalaninamide] | 0.92 | 1.2 | 77 | – | – | – | –
13 | O=C(NC(CCc1ccccc1)S(=O)(=O)CF)[C@H](Cc1ccccc1)NC(=O)N1CCOCC1 (stereo partly drawn) [Mu--Phe--HphαSO2 CH2 F, N^2-(4-morpholinylcarbonyl)-N^1-(3-phenyl-1-fluoromethylsulfonylpropyl)-L-phenylalaninamide] | 2 | 1.5 | 170 | – | – | – | 2.8
14 | Nc1ccc(CC[C@H](CCc2ccccc2)NC(=O)[C@H](Cc2ccccc2)NC(=O)N2CCOCC2)cc1 [Mu--Phe--Hph--γPh--NH2, N^2-(4-morpholinylcarbonyl)-N^1 -{3-phenyl-1S-[2-(4-aminophenyl)ethyl]propyl}-L-phenylalaninamide] | 3 | 2.9 | – | – | – | – | –
15 | O=C(CC[C@H](CCc1ccccc1)NC(=O)[C@H](Cc1ccccc1)NC(=O)N1CCOCC1)NCc1ccccc1 [Mu--Phe--HphγCONHBzl, N^2-(4-morpholinylcarbonyl)-N^1-[3-phenyl-1S-(2-benzylcarbamoylethyl)propyl]-L-phenylalaninamide] | 7.7 | 19 | – | – | – | – | –
16 | O=C(NC(CCc1ccccc1)S(=O)(=O)c1ccccc1)[C@H](Cc1ccccc1)NC(=O)N1CCOCC1 (stereo partly drawn) [Mu--Phe--(DL)HphαSO2 Ph,] | – | – | – | – | – | – | 3.7
17 | COc1ccc(CC[C@H](CCc2ccccc2)NC(=O)[C@H](Cc2ccccc2)NC(=O)N2CCOCC2)cc1 [Mu--Phe--Hph-γPh--OMe, N^2-(4-morpholinylcarbonyl)-N^1 -{3-phenyl-1S-[2-(4-methoxyphenyl)ethyl]propyl}-L-phenylalaninamide] | 0.89 | 0.94 | 4.8 | – | – | – | –
18 | COC(=O)CCC(=O)N[C@@H](Cc1ccccc1)C(=O)N[C@@H](CCc1ccccc1)CCS(=O)(=O)c1ccccc1 [MeOSuc--Phe--HphγSO2 Ph, methyl 3-{2-phenyl-1S-[3-phenyl-1S-(2-phenylsulfonylethyl)propylcarbamoyl]ethylcarbamoyl}propionate] | 4.7 | 3.2 | 81 | – | – | – | –
19 | O=C(NC(CCc1ccccc1)S(=O)(=O)C(F)(F)F)[C@H](Cc1ccccc1)NC(=O)N1CCOCC1 (stereo partly drawn) [Mu--Phe--HphαSO2 CR3, N^2-(4-morpholinylcarbonyl)-N^1-(3-phenyl-1-trifluoromethylsulfonylpropyl)-L-phenylalaninamide] | 0.23 | 0.18 | 50 | – | – | – | –
20 | O=C(CC[C@H](CCc1ccccc1)NC(=O)[C@H](Cc1ccccc1)NC(=O)N1CCOCC1)Nc1ccccc1 [Mu--Phe--HphγCONHPh, N^2-(4-morpholinylcarbonyl)-N^1-[3-phenyl-1S-(2-phenylcarbamoylethyl)propyl]-L-phenylalaninamide] | 0.13 | 2 | 2.6 | – | – | – | –
21 | O=C(N[C@@H](CCc1ccccc1)CCS(=O)(=O)c1ccccc1)[C@H](Cc1ccccc1)NC(=O)N1CCOCC1 [Mu--Phe--HphγSO2 Ph, N^2-(4-morpholinylcarbonyl)-N^1-[3-phenyl-1S-(2-phenylsulfonylethyl)propyl]-L-phenylalaninamide] | 4.3 | 10 | 48 | – | – | – | –
22 | O=C(NC(CCc1ccccc1)S(=O)(=O)c1ccccc1)[C@H](Cc1ccccc1)NC(=O)N1CCOCC1 (stereo partly drawn) [Mu--Phe--(DL)HphαSO2 Ph, N^2-(4-morpholinylcarbonyl)-N^1-(3-phenyl-1-phenylsulfonylpropyl)-L-phenylalaninamide] | 15 | 13 | 3000 | – | – | – | 5
23 | O=C(Cc1ccccc1)N[C@@H](Cc1ccccc1)C(=O)N[C@@H](CCc1ccccc1)CCS(=O)(=O)c1ccccc1 [Phac--Phe--HphγSO2 Ph, N^2-phenylacetyl-N^1-[3-phenyl-1S-(2-phenylsulfonylethyl)propyl]-L-phenylalaninamide] | 1.8 | 0.41 | > 10 | – | – | – | –
24 | CC(C)C[C@H](NC(=O)N1CCOCC1)C(=O)NC(CCc1ccccc1)S(=O)(=O)c1ccccc1 (stereo partly drawn) [Mu--Leu--HphαSO2 Ph, N^2-(4-morpholinylcarbonyl)-N^1-(3-phenyl-1-phenylsulfonylpropyl)-L-leucinamide] | 0.27 | 1.3 | 16 | – | – | – | 1.6
25 | O=C(N[C@@H](CCc1ccccc1)S(=O)(=O)c1ccccc1)[C@H](Cc1ccccc1)NC(=O)N1CCOCC1 [Mu--Phe--HphαSO2 Ph] | – | – | – | – | – | – | 2.6
26 | O=C(N[C@@H](CCc1ccccc1)CS(=O)(=O)c1ccccc1)[C@H](Cc1ccccc1)NC(=O)N1CCOCC1 [Mu--Phe--HphβSO2 Ph, N^1-(4-morpholinylcarbonyl)-N^1-(3-phenyl-1S-phenylsulfonylmethylpropyl)-L-phenylalaniamide] | 5.7 | 29 | 1100 | – | – | – | –
